The structures appear in SMILES notation.

In general, melting point refers to the temperature of the solid-liquid transition. The compound `COCCOc1ccc(CCNC(=O)C=Cc2ccc(OC)cc2OC)cc1S(N)(=O)=O` had a melting point of 175 to 178 °C. On to `CCN1C(=O)c2cccnc2N(CC)c2ccccc21`, for which the melting point was in the range of 108 to 110 °C.

For `CC(=O)Nc1ccc(NCCSC#N)c([N+](=O)[O-])c1`, the melting point was 168 °C. Take `Cc1cc(N2N=C(c3ccc([N+](=O)[O-])cc3)c3cc4c(cc3CC2C)OCO4)on1` (configuration not stated): the melting point lay within 179 to 182 °C. `CCOc1ccc(C(=O)NC/C=C/c2ccccc2)cc1`: the melting point was found to be 132 °C.

As to `Clc1ccc(N2CCN(Cc3c[nH]c4ncccc34)CC2)cc1Cl`, the melting point lay within 219 to 220 °C. With `COC(=O)c1ccc(-c2nsc3nc4ccccc4n23)cc1` the figure was 204 to 206 °C. On to `N#Cc1ccc(C2CCCC(=O)N2c2ccccc2)cc1` (configuration not stated), for which the melting point was 120 °C. With `O=C1OC(Cl)(c2ccc(Cl)cc2)c2ccccc21` (configuration not stated) the figure was 133 to 135 °C; with `CC1(C)CON(Cc2c(F)cccc2Cl)C1=O`, 49 to 51 °C; with `CC(=O)OC1CSC(Oc2cncc(-c3cc4ccccc4o3)c2)C(OC(C)=O)C1OC(C)=O` (configuration not stated), 125 °C. With `FC(F)(F)c1cc(-c2ccc(Cl)cc2)nc2c(-c3ccncc3)cnn12` the figure was 274 °C; with `CC(C)Cn1nc(-c2ccc(F)c(F)c2)cc(C(=O)O)c1=O`, 163 to 164 °C. `O=C(O)c1cc2cc(F)c(F)cc2o1` showed a melting point of 270 °C. Turning to `Cc1cc(Nc2c3ccccc3nc3ccccc23)ccc1N`, the melting point is 256 to 257 °C. Compound `CCOC(=O)c1sc(Cl)nc1C(Cl)(Cl)Cl` returned a melting point of 42.5 to 43.5 °C.

In the case of `COc1ccc(C(=O)C2=C(O)C(=O)N(c3ccc(C)nn3)C2c2ccc(OC(F)(F)F)cc2)cn1` (configuration not stated), the melting point fell in the range of 250 to 251 °C.

On to `CCNc1ccc2c(c1)Cc1c-2[nH]c2ccccc12`, for which the melting point was 225 °C. In the case of `COc1cccc2cc(-c3ccc(OCCN4CCCC4)cc3)sc12` it was 88 to 90 °C; in that of `Cc1ccccc1C(=O)Nc1c(NC(=O)CCl)ccc2c1C(=O)c1ccccc1C2=O`, 179 to 180 °C; in that of `COc1ccn2cc(-c3ccc(OC)c(OC)c3)nc2c1`, 142 °C. In the case of `Cn1nc(-c2cc(C(C)(C)C)c(O)c(C(C)(C)C)c2)c2cccnc21` it was 152 to 154 °C; in that of `O=C(O)C1=Cc2cc(Cl)cc(C=NO)c2OC1C(F)(F)F` (configuration not stated), 247 to 248 °C; in that of `CC(=O)OCC1OC(F)C(N2C(=O)c3ccccc3C2=O)C(OC(C)=O)C1OC(C)=O` (configuration not stated), 116 °C.

Turning to `FC(F)(F)COc1ccc(-c2cc(C(F)(F)F)n3ncc(-c4cccnc4)c3n2)cc1C(F)(F)F`, the melting point was 181 °C. Turning to `CN1C(=O)C(c2ccc(OC(F)F)cc2)(c2cccc(OCCC=C(F)F)c2)N=C1N` (configuration not stated), the melting point lay in the range of 127 to 128 °C. Compound `Cc1ccccc1C(=O)Nc1ccc(C(=O)N2Cc3ccccc3Cc3ccccc32)cc1` displayed a melting point of 198 to 203 °C. In the case of `CCOC(=O)C1=C(C)N(C(C)=O)C(c2cscn2)=NC1c1cccc(OC)c1` (configuration not stated) it was 130 to 131 °C. For the compound `O=C(O)C1CCN(c2ccc3nc4[nH]c(=O)[nH]c4cc3c2)CC1`, the melting point is > 310 °C. `Nc1cc(Cl)c([N+](=O)[O-])cc1OC(=O)c1cccc(C(=O)Oc2cc([N+](=O)[O-])c(Cl)cc2N)c1` had a melting point of 129 to 130 °C.

Regarding `COc1cccc(CCN2C(=O)c3ccccc3C2(O)c2ccc(C(F)(F)F)cc2)c1` (configuration not stated), the melting point was determined as 167 °C. In the case of `N#Cc1ccc(NC2CCN(Cc3cc(F)c(F)c(F)c3)CC2)nn1`, the melting point was 185 °C.

For `O=S(=O)(c1cccc(F)c1)c1ccc2[nH]c3c(c2c1)CCNCC3`, the melting point was 153 to 156 °C. With `CCCc1nn2ncc(C(=O)OCOC(=O)C(C)(C)C)c2n1Cc1ccc(-c2ccccc2-c2nnn[nH]2)cc1` the figure was 157 to 158 °C; with `COc1ccc(CNC(=O)c2c(NC(=O)c3ccc(C(=O)O)cc3)sc3c2CCCC3)cc1OC`, > 270 °C. In turn, `O=C(O)c1ccc(Cl)cc1NC(=O)C(CS)Cc1ccccc1` (configuration not stated) showed a melting point of 134 to 136 °C. In the case of `CS(=O)(=O)Cc1cc(C(=O)C=NCCCCCCN=CC(=O)c2ccc(OCc3ccccc3)c(CS(C)(=O)=O)c2)ccc1OCc1ccccc1` it was 162 to 163 °C. In the case of `CC(C)(C)c1cc(C(=O)Nc2cc(Cl)c(Cl)cc2NC(=O)NC23CC4CC(CC(C4)C2)C3)cc(C(C)(C)C)c1O`, the melting point was 203 to 207 °C. In turn, `CCOC(=O)C(=CC=C(SC)C(=O)c1ccc(O)c(O)c1)N(C)C` showed a melting point of 144 °C. On to `CCCCNC(=O)NS(=O)(=O)c1c(C(=O)OCC)cnn1C`, for which the melting point lay in the range of 117 to 119 °C. Take `CC1(C)N=C(c2ccccc2F)c2cc([N+](=O)[O-])cc(Cl)c2NC1=O`: the melting point lay within 142 to 143 °C. In the case of `COc1ccc(NCC2CCn3c(nc4ccccc43)S2)cc1` (configuration not stated) it was 155 to 157 °C.

Regarding `CC(=CC(=O)OCCCCCCCCC(=O)O)CC1OCC(CC2OC2C(C)C(C)O)C(O)C1O` (configuration not stated), the melting point lay in the range of 73 to 75 °C. As for `NC(=O)N(O)CC#Cc1cccc(Oc2cccnc2)c1`, the melting point fell in the range of 107 to 110 °C. For the compound `CCOCc1nc2c(N)nc3ccccc3c2n1CC(C)(C)OCCS(C)(=O)=O`, the melting point was 183 to 185 °C. With `Cc1ccc(Br)c(C)c1C(=O)O` the figure was 121 °C.

Regarding `CC1N(c2cc(CC(Cl)C(=O)O)c(Cl)cc2Cl)NC(=O)N1C(F)F` (configuration not stated), the melting point was in the range of 138 to 141 °C. In the case of `O=C(NCCCCCCNC(=O)Nc1cccnc1)Nc1cccnc1` it was 197 to 199 °C. With `OC1CCCc2nc3cc(Cl)ccc3c(NCc3ccccc3)c21` (configuration not stated) the figure was 163 °C. With `Nc1nc(N)nc(OCc2ccccc2)n1` the figure was 184 to 185 °C. In turn, `O=C(c1ccn2c1CSC2c1cccnc1)c1cn(S(=O)(=O)c2ccccc2)c2cc(-c3ccc(F)cc3)ccc12` (configuration not stated) displayed a melting point of 115 to 116 °C. With `CCOC(=O)c1nn(-c2cccc(C)c2)c(=O)c2c(N)scc12` the figure was 190 to 191 °C. With `COc1cc(-n2cnc3cc(-c4ccc(Cl)cc4)sc3c2=O)ccc1OCC1(O)CC(F)(F)C1` the figure was 198 to 199 °C; with `CC(C)(CO)NS(=O)(=O)c1cnc(NC(=O)c2cnn3c(C(F)F)cc(-c4ccc(C(F)(F)F)cc4)nc23)s1`, 280 °C; with `O=Cc1ccc(Sc2nc3ncccc3[nH]2)o1`, 188 °C. On to `CCc1cccc(C)c1CNc1nc(OCCOC)cc(NC)c1[N+](=O)[O-]`, for which the melting point fell in the range of 135 to 136 °C. The compound `CCOC(=O)CCCC(=O)c1ccc(-c2ccc(C)cc2)s1` showed a melting point of 120 to 121 °C. In the case of `O=C(N[C@H]1CC[C@H](CCN2CCC(c3cccc4c3CCO4)CC2)CC1)c1ccc(N2CCOCC2)cc1` it was 247 °C; in that of `CCOC(=O)c1cnn(C)c1C(=O)Nc1ccc2nc(N3CCOCC3)nn2c1`, 234 °C; in that of `CCC(=O)c1cc(C(=O)OC)c(N)cc1C(F)(F)F`, 141 to 144 °C. With `CC1(C)COC(c2cc(I)cc(C(F)(F)F)c2)=N1` the figure was 73 to 74.5 °C; with `COc1nc(NC(=O)NS(=O)(=O)CC(C)Cl)nc(OC)n1` (configuration not stated), 139 to 141 °C; with `CCN1CCOc2nc(Cl)c(Cl)nc21`, 108 to 110 °C. Take `CCCCCCCCCC[C@H](CC(=O)OC(C)(C)C)C(=O)N1C(=O)OC[C@@H]1C(C)C`: the melting point was in the range of 42 to 43 °C.

Regarding `NC(=O)c1ncn2c1CN=C(c1ccccc1Cl)c1cc(Cl)ccc1-2`, the melting point is > 300 °C. Regarding `CCOC(=O)C(=NOC(C)C)c1csc(NC(c2ccccc2)(c2ccccc2)c2ccccc2)n1`, the melting point came to 182 °C. Regarding `Nc1c([N+](=O)[O-])c(C(F)(F)F)nn1-c1c(Cl)cc(C(F)(F)F)cc1Cl`, the melting point was 214 to 215 °C. With `CC(=O)NC[C@H]1CN(c2ccc(-c3noc(C(N)=O)n3)c(F)c2)C(=O)O1` the figure was 218 to 220 °C; with `Cc1ccc(NC(=O)c2cc(Cl)ccc2NCC2CCN(C(C)C)CC2)nc1`, 147 to 148 °C.

In the case of `Cc1c([N+](=O)[O-])ccc2c1CCN2`, the melting point was in the range of 169 to 171 °C. As for `CCOC(=O)/C=C/c1cc(C(F)(F)F)ccc1C(=O)NCC(F)(F)F`, the melting point stood at 162 °C. As to `CCOc1cc(-c2nc(N)sc2CCC2CCCCC2)c(OC)cc1C`, the melting point fell in the range of 96 to 97 °C.

`CC1=NCCn2cccc21` registered a melting point of 25 to 27 °C. Compound `O=C1N(c2ccc(Cl)cc2Cl)Cc2cnc(Nc3ccccc3)nc2N1c1ccc(CO)cc1` came in with a melting point of 121 to 125 °C. In turn, `COc1cc2c(cc1OC)CN(CCCCOc1ccc(NC(=O)c3nccc4ccccc34)cc1)CC2` displayed a melting point of 122 to 123 °C. With `O=C(OCC(O)CO)c1cc(F)ccc1Nc1ccnc2cc(Cl)ccc12` (configuration not stated) the figure was 168 °C; with `CS(=O)(=O)Nc1ccc(OCCCN2C(=O)c3ccccc3C2=O)cc1`, 176 to 178 °C; with `Cc1cccc([N+](=O)[O-])c1CC(CC(=O)O)C(=O)O` (configuration not stated), 172 to 176 °C.

Turning to `CP(=O)(O)c1ccc(C(=O)O)cc1`, the melting point lay in the range of 238 to 240 °C. With `Nc1cc(Oc2ccccc2)ccc1[N+](=O)[O-]` the figure was 72 °C; with `C=CC(O)c1ccc2[nH]c(CCCC)nc(=O)c2c1` (configuration not stated), 141 °C; with `C#CCn1c(-c2cc(Cl)nc(Cl)c2)nc(CC)c(OC)c1=O`, 112 to 115 °C.

As for `CC(=O)Nc1nc(OS(=O)(=O)c2ccccc2)ncc1F`, the melting point fell in the range of 142 to 143 °C. `COc1ccc(C2=CCN(Cc3n[nH]c4ccccc34)CC2)cc1` had a melting point of 157 to 159 °C. In the case of `CCN(CC)CC(=O)Nc1ccc2c(c1)C(=O)c1cc(NC(=O)CN(CC)CC)ccc1C2=O` it was 241 °C; in that of `Cc1c(Cl)ccc([N+](=O)[O-])c1C#N`, 97 to 98 °C. With `COCON=C(C(=O)C=CN(C)C)C(=O)OC` the figure was 99 to 100 °C.

Source of the values: a melting point compilation (Tetko et al.; mined from patent text by program, amines drawn as free bases though some values may be those of a salt).
